The structures appear in SMILES notation. Converted amounts (≈) assume the structure as drawn. The source made the active and inactive calls. The calls are words filed in the database; no cut-off is given here.

In experiment [1] the test system is Acinetobacter baumannii. The experiment is described as follows: Antibacterial activity against Acinetobacter baumannii 6M-1b measured after 18 hrs by broth microdilution assay. The format is functional.
Experiment [2] concerns Acinetobacter baumannii. The experiment is described as follows: Antibacterial activity against Acinetobacter baumannii ATCC 19606 measured after 18 hrs by broth microdilution assay. The format is functional. As to conditions: ATCC 19606, 18 h.
Experiment [3] concerns Acinetobacter baumannii. Kind of experiment: Antibacterial activity against Acinetobacter baumannii ACBA measured after 18 hrs by broth microdilution assay. The format is functional.
For experiment [4], the system named is Enterobacter cloacae. Kind of experiment: Antibacterial activity against Enterobacter cloacae ATCC 13047 measured after 18 hrs by broth microdilution assay. The format is functional. As to conditions: ATCC 13047, 18 h.
Experiment [5] deals with Klebsiella pneumoniae. Kind of experiment: Antibacterial activity against Klebsiella pneumoniae ATCC 35657 measured after 18 hrs by broth microdilution assay. The format is functional. As to conditions: ATCC 35657, 18 h.
Experiment [6] relates to Pseudomonas aeruginosa. Kind of experiment: Antibacterial activity against Pseudomonas aeruginosa PA14 measured after 18 hrs by broth microdilution assay. The format is functional. The settings on record: PA14, 18 h.
In experiment [7] the test system is Staphylococcus aureus. Kind of experiment: Antibacterial activity against […] Staphylococcus aureus ATCC 29213 measured after 18 hrs by broth microdilution assay. The format is functional. The settings on record: ATCC 29213, 18 h.
In experiment [8] the test system is Enterococcus faecalis. Kind of experiment: Antibacterial activity against Enterococcus faecalis ATCC 19433 measured after 18 hrs by broth microdilution assay. The format is functional. The settings on record: ATCC 19433, 18 h.
For experiment [9], the system named is Mycobacterium tuberculosis. The experiment is described as follows: Antibacterial activity against […] Mycobacterium tuberculosis H37Rv measured after 14 days by broth microdilution assay. The format is functional. The settings on record: 336 h.
The test system of experiment [10] is Mycobacterium tuberculosis. The experiment is described as follows: Antibacterial activity against Mycobacterium tuberculosis 115R measured after 14 days by broth microdilution assay. As to conditions: 336 h. The format is functional.
Experiment [11] has as its system Mycobacterium tuberculosis. The experiment is described as follows: Antibacterial activity against Mycobacterium tuberculosis 124R measured after 14 days by broth microdilution assay. The format is functional. The settings on record: 336 h.
For experiment [12], the system named is Mycobacteroides abscessus. Kind of experiment: Antibacterial activity against Mycobacterium abscessus ATCC 19977 measured after 3 days by broth microdilution assay. The format is functional. As to conditions: ATCC 19977, 72 h.
Experiment [13] has as its system Mycobacterium avium. Kind of experiment: Antibacterial activity against Mycobacterium avium 104 measured after 7 days by broth microdilution assay. The format is functional. The settings on record: Mycobacterium avium, 104, 168 h.
Experiment [14] relates to Mycobacterium tuberculosis. The experiment is described as follows: Antibacterial activity against Mycobacterium tuberculosis. The format is functional.
The subject of experiment [15] is Mycobacterium tuberculosis. Kind of experiment: Bactericidal activity against Mycobacterium tuberculosis H37Rv measured after 21 days by broth microdilution assay. The format is functional. The settings on record: 504 h, read-out: MBC99.9.
Experiment [16] has as its system Enterococcus faecalis. Kind of experiment: Bactericidal activity against Enterococcus faecalis ATCC 19433 up to 8 times MIC90 measured after 2 days by broth microdilution assay. The format is functional.
Experiment [17] relates to Staphylococcus aureus. Kind of experiment: Bactericidal activity against Staphylococcus aureus ATCC 29213 up to 8 times MIC90 measured after 2 days by broth microdilution assay. The format is functional, organism-based.
Experiment [18] relates to Enterococcus faecalis. The experiment is described as follows: Bacteriostatic activity against Enterococcus faecalis ATCC 19433 assessed as prevention of spontaneous resistant mutant selection up to 60 times MIC90 measured after 5 weeks. The format is functional.
In experiment [19] the test system is Staphylococcus aureus. Kind of experiment: Bacteriostatic activity against […] Staphylococcus aureus ATCC 29213 assessed as prevention of spontaneous resistant mutant selection up to 60 times MIC90 measured after 5 weeks. The format is functional, organism-based.
The subject of experiment [20] is Enterococcus faecalis. Kind of experiment: Potentiation of biapenem-induced antibacterial activity against Enterococcus faecalis ATCC 19433 at <0.5 times MIC90 by checkboard titration assay. The format is functional.
Experiment [21] concerns Enterococcus faecalis. The experiment is described as follows: Potentiation of faropenem-induced antibacterial activity against Enterococcus faecalis ATCC 19433 at <0.5 times MIC90 by checkboard titration assay. The format is functional.
Experiment [22] concerns Enterococcus faecalis. Kind of experiment: Potentiation of tabipenem-induced antibacterial activity against Enterococcus faecalis ATCC 19433 at <0.5 times MIC90 by checkboard titration assay. The format is functional.
The subject of experiment [23] is Staphylococcus aureus. The experiment is described as follows: Potentiation of biapenem-induced antibacterial activity against Staphylococcus aureus ATCC 29213 at <0.5 times MIC90 by checkboard titration assay. The format is functional, organism-based.
The test system of experiment [24] is Staphylococcus aureus. Kind of experiment: Potentiation of faropenem-induced antibacterial activity against Staphylococcus aureus ATCC 29213 at <0.5 times MIC90 by checkboard titration assay. The format is functional, organism-based.
Experiment [25] has as its system Staphylococcus aureus. The experiment is described as follows: Potentiation of tabipenem-induced antibacterial activity against Staphylococcus aureus ATCC 29213 at <0.5 times MIC90 by checkboard titration assay. The format is functional, organism-based.
Experiment [26] has as its system Mycobacterium tuberculosis. The experiment is described as follows: Potentiation of isoniazid-induced antibacterial activity against Mycobacterium tuberculosis H37Rv by checkboard titration assay. The format is functional, organism-based.
Experiment [27] deals with Mycobacterium tuberculosis. Kind of experiment: Potentiation of rifampicin-induced antibacterial activity against Mycobacterium tuberculosis H37Rv by checkboard titration assay. The format is functional, organism-based.

Consider `C[C@@H](O)[C@H]1C(=O)N2C(C(=O)O)=C(S[C@@H]3CN[C@H](C(=O)N(C)C)C3)[C@H](C)[C@H]12` [MEROPENEM], for which the MIC90 was 1 µg/mL (≈ 2.61 µM) in experiment [1]; > 64 µg/mL in experiment [2]; > 64 µg/mL in experiment [3]; 0.13 µg/mL (≈ 0.339 µM) in experiment [4]; < 0.06 µg/mL in experiment [5]; 0.25 µg/mL (≈ 0.652 µM) in experiment [6]. For the same molecule, the MIC90 in [7] was 0.06 µg/mL (≈ 0.156 µM); in [8], 4 µg/mL (≈ 10.4 µM); in experiment [9], 4 µg/mL (≈ 10.4 µM); in [10], 8 µg/mL (≈ 20.9 µM); in experiment [11] it was 8 µg/mL (≈ 20.9 µM); in [12], > 64 µg/mL. In addition, the MIC90 in experiment [13] is > 64 µg/mL.
`C[C@@H](O)[C@H]1C(=O)N2C(C(=O)[O-])=C(SC3Cn4cnc[n+]4C3)[C@H](C)[C@H]12` (stereo partly specified) [BIAPENEM]: the MIC90 in experiment [7] worked out at 0.007 µg/mL (≈ 0.02 µM); in [8] it was 0.25 µg/mL (≈ 0.713 µM); in [14], 2.5 µg/mL (≈ 7.13 µM).
On to `CC(=O)NC[C@H]1CN(c2ccc3c(c2)Oc2ccccc2O3)C(=O)O1`, for which the MIC90 in experiment [1] is 0.25 µg/mL (≈ 0.735 µM); in experiment [2] it was 32 µg/mL (≈ 94 µM); in [3], > 64 µg/mL; in experiment [4] it was > 64 µg/mL; in experiment [5], > 64 µg/mL; in experiment [6] it was > 64 µg/mL. The MIC90 in [7] was 0.5 µg/mL (≈ 1.47 µM); in experiment [8], 0.25 µg/mL (≈ 0.735 µM); in experiment [9], 0.5 µg/mL (≈ 1.47 µM); in experiment [10], 0.5 µg/mL (≈ 1.47 µM); in [11], 0.5 µg/mL (≈ 1.47 µM); in experiment [12] it was > 64 µg/mL. Besides, the MIC90 in [13] is > 64 µg/mL. Further, in [15], the MBC came out at 2 µg/mL (≈ 5.88 µM). Besides, the result in [16], in [17], in [20], in experiment [21], in [22] and in [23] was inactive. Further, the result in [24], in experiment [25], in [26] and in [27] was inactive. Also, the result in experiment [18] and in experiment [19] was Active.
In the case of `C[C@@H](O)[C@H]1C(=O)N2C(C(=O)O)=C([C@H]3CCCO3)S[C@H]12` [FAROPENEM], the values for the MIC90 in experiment [7], in [8] and in experiment [14] were 0.015 µg/mL (≈ 0.0526 µM), 0.25 µg/mL (≈ 0.876 µM) and 2.5 µg/mL (≈ 8.76 µM), respectively.
Regarding `CC(=O)NC[C@H]1CN(c2ccc(N3CCOCC3)c(F)c2)C(=O)O1` [LINEZOLID], the MIC90 in experiment [1] is 0.25 µg/mL (≈ 0.741 µM); in experiment [2] it was > 64 µg/mL; in [3] it was > 64 µg/mL; in experiment [4], > 64 µg/mL; in experiment [5], 16 µg/mL (≈ 47.4 µM); in [6] it was > 64 µg/mL. The MIC90 in experiment [7] is 1 µg/mL (≈ 2.96 µM); in [8], 1 µg/mL (≈ 2.96 µM); in [9], 0.2 µg/mL (≈ 0.593 µM); in experiment [10], 0.25 µg/mL (≈ 0.741 µM); in [11], 0.25 µg/mL (≈ 0.741 µM).
Regarding `C[C@@H](O)[C@H]1C(=O)N2C(C(=O)O)=C(SC3CN(C4=NCCS4)C3)[C@H](C)[C@H]12` [TEBIPENEM], the MIC90 in experiment [7] was determined as 0.03 µg/mL (≈ 0.0782 µM); in experiment [8], 0.25 µg/mL (≈ 0.652 µM); in [14], 1.25 µg/mL (≈ 3.26 µM).
As to `CO[C@H]1/C=C/O[C@@]2(C)Oc3c(C)c(O)c4c(O)c(c(/C=N/N5CCN(C)CC5)c(O)c4c3C2=O)NC(=O)/C(C)=C\C=C\[C@H](C)[C@H](O)[C@@H](C)[C@@H](O)[C@@H](C)[C@H](OC(C)=O)[C@@H]1C` [RIFAMPIN], the MIC90 in experiment [10] amounted to 4 µg/mL (≈ 4.86 µM); in [11], 128 µg/mL (≈ 156 µM).

These data come from ChEMBL document CHEMBL3822373, “An evolved oxazolidinone with selective potency against Mycobacterium tuberculosis and gram positive bacteria” (2016).
